Some results are limits rather than exact numbers.

The record followed here is ChEMBL document CHEMBL1153983, “Anti-HBV agents. Part 2: synthesis and in vitro anti-hepatitis B virus activities of alisol A derivatives” (Bioorg Med Chem Lett, 2009).

Data set [1] can be described thus: Selectivity index, ratio of CC50 for human HepG2(2.2.15) cells to IC50 for HBV surface antigen secretion. It is filed as functional.
A short description of data set [2]: Cytotoxicity against human HepG2(2.2.15) cells. It is filed as cell-based.
Data set [3] relates to Hepatitis B virus. Briefly: Antiviral activity against HBV assessed as inhibition of viral early antigen secretion. The data set is classed as functional, organism-based.
In data set [4] the test system is Hepatitis B virus. Briefly: Antiviral activity against HBV assessed as inhibition of viral surface antigen secretion. It is filed as functional, organism-based.
A short description of data set [5]: Selectivity index, ratio of CC50 for human HepG2(2.2.15) cells to IC50 for HBV early antigen secretion. The data set is classed as functional.

For the compound `CCOCC(=O)O[C@@H](C[C@@H](C)[C@]12CC[C@@]3(C)[C@@]1(C[C@H](OC(=O)COCC)[C@H]1[C@@]4(C)CCC(=O)C(C)(C)[C@@H]4CC[C@@]13C)O2)[C@@H](OC(=O)COCC)C(C)(C)OC(=O)COCC`, the “Ratio CC50/IC50” value was above 5.6 in data set [1] and above 4.4 in data set [5]. In data set [2], this compound displayed a half-maximal cytotoxic concentration (CC50) above 1400 µM. For the same compound, the IC50 is 320 µM in data set [3] and 250 µM in data set [4].

For `COCC(=O)O[C@@H](C[C@@H](C)C1=C2C[C@H](OC(=O)COC)[C@H]3[C@@]4(C)CCC(=O)C(C)(C)[C@@H]4CC[C@]3(C)[C@@]2(C)CC1)[C@@H](OC(=O)COC)C(C)(C)OC(=O)COC`, the results for the “Ratio CC50/IC50” value in data set [1] and in data set [5] were above 90 and above 93, respectively. The half-maximal cytotoxic concentration (CC50) in data set [2] is above 2500 µM. In addition, the values for the IC50 in data set [3] and in data set [4] were 27 µM and 28 µM, respectively.

As to `C=C(C)[C@H](OC(=O)COC)[C@H](C[C@@H](C)C1=C2C[C@H](OC(=O)COC)[C@H]3[C@@]4(C)CCC(=O)C(C)(C)[C@@H]4CC[C@]3(C)[C@@]2(C)CC1)OC(=O)COC`, the figures for the “Ratio CC50/IC50” value in data set [1] and in data set [5] were above 42 and above 24, respectively. The cytotoxic concentration (CC50) in data set [2] is above 2800 µM. Also, the IC50 stood at 120 µM in data set [3] and 68 µM in data set [4].

Take `Nc1ccn([C@@H]2CS[C@H](CO)O2)c(=O)n1` [LAMIVUDINE]: the results for the “Ratio CC50/IC50” value in data set [1] and in data set [5] were 1.7 and 0.82, respectively. This compound also came in with a CC50 in data set [2] of 31000 µM. In addition, the IC50 in data set [3] worked out at 38000 µM; in data set [4] it was 18000 µM.

As for `CCOCC(=O)O[C@@H](C[C@@H](C)[C@]12CC[C@@]3(C)[C@@]1(C[C@H](OC(=O)COCC)[C@H]1[C@@]4(C)CCC(=O)C(C)(C)[C@@H]4CC[C@@]13C)O2)[C@@H](OC(=O)COCC)C(C)(C)O`, the “Ratio CC50/IC50” value in data set [1] is on record as 1.9; in data set [5], below 1. The CC50 in data set [2] came out at 250 µM. Besides, the IC50 in data set [3] is above 250 µM; in data set [4] it was 130 µM.

As to `C[C@H](C[C@H](OC(=O)c1ccc(Br)cc1)[C@@H](OC(=O)c1ccc(Br)cc1)C(C)(C)O)C1=C2C[C@H](OC(=O)c3ccc(Br)cc3)[C@H]3[C@@]4(C)CCC(=O)C(C)(C)[C@@H]4CC[C@]3(C)[C@@]2(C)CC1`, the “Ratio CC50/IC50” value in data set [1] and in data set [5] was below 1 in each case. The compound also registered a CC50 in data set [2] of 650 µM. Further, the IC50 in data set [3] and in data set [4] was above 650 µM each time.

As for `C[C@H](C[C@H](OC(=O)CNC(=O)OC(C)(C)C)[C@@H](OC(=O)CNC(=O)OC(C)(C)C)C(C)(C)O)C1=C2C[C@H](OC(=O)CNC(=O)OC(C)(C)C)[C@H]3[C@@]4(C)CCC(=O)C(C)(C)[C@@H]4CC[C@]3(C)[C@@]2(C)CC1`, the “Ratio CC50/IC50” value is above 4.7 in data set [1] and above 16 in data set [5]. The compound further returned a CC50 in data set [2] above 1500 µM. Also, the IC50 in data set [3] came to 94 µM; in data set [4] it was 320 µM.

With `CC(=O)OCC(=O)O[C@@H](C[C@@H](C)C1=C2C[C@H](OC(=O)COC(C)=O)[C@H]3[C@@]4(C)CCC(=O)C(C)(C)[C@@H]4CC[C@]3(C)[C@@]2(C)CC1)[C@@H](OC(=O)COC(C)=O)C(C)(C)O`, the “Ratio CC50/IC50” value in data set [1] is listed as above 1.3; in data set [5] it was below 1. This compound gave a half-maximal cytotoxic concentration (CC50) in data set [2] of 51 µM. For the same compound, the IC50 is above 51 µM in data set [3] and below 38 µM in data set [4].

Regarding `CCOCC(=O)O[C@@H](C[C@@H](C)C1=C2C[C@H](OC(=O)COCC)[C@H]3[C@@]4(C)CCC(=O)C(C)(C)[C@@H]4CC[C@]3(C)[C@@]2(C)CC1)[C@@H](OC(=O)COCC)C(C)(C)OC(=O)COCC`, the “Ratio CC50/IC50” value in data set [1] was above 11; in data set [5] it was above 8.7. The same compound had a CC50 in data set [2] above 2300 µM. The IC50 turned out to be 260 µM in data set [3] and 200 µM in data set [4].

For the compound `COCC(=O)O[C@@H](C[C@@H](C)[C@]12CC[C@@]3(C)[C@@]1(C[C@H](OC(=O)COC)[C@H]1[C@@]4(C)CCC(=O)C(C)(C)[C@@H]4CC[C@@]13C)O2)[C@@H](OC(=O)COC)C(C)(C)O`, the entries for the “Ratio CC50/IC50” value in data set [1] and in data set [5] were 1.2 and below 1, respectively. Further, in data set [2], it took 1100 µM to reach half-maximal cytotoxicity (CC50). Further, the IC50 in data set [3] was above 1100 µM; in data set [4], 900 µM.

Regarding `CC(=O)NCC(=O)O[C@@H](C[C@@H](C)C1=C2C[C@H](OC(=O)CNC(C)=O)[C@H]3[C@@]4(C)CCC(=O)C(C)(C)[C@@H]4CC[C@]3(C)[C@@]2(C)CC1)[C@@H](OC(=O)CNC(C)=O)C(C)(C)O`, the “Ratio CC50/IC50” value in data set [1] and in data set [5] was below 1 throughout. This compound gave a CC50 in data set [2] of 270 µM. Further, the half-inhibitory concentration (IC50) in data set [3] turned out to be 880 µM; in data set [4], 290 µM.

Regarding `CC(=O)OCC(=O)O[C@@H](C[C@@H](C)[C@]12CC[C@@]3(C)[C@@]1(C[C@H](OC(=O)COC(C)=O)[C@H]1[C@@]4(C)CCC(=O)C(C)(C)[C@@H]4CC[C@@]13C)O2)[C@@H](OC(=O)COC(C)=O)C(C)(C)O`, the “Ratio CC50/IC50” value is given as 2.1 in data set [1] and below 1 in data set [5]. The cytotoxic concentration (CC50) in data set [2] was 250 µM. The IC50 in data set [3] was above 250 µM; in data set [4] it was 120 µM.

`C=C(C)[C@H](OC(=O)COCC)[C@H](C[C@@H](C)C1=C2C[C@H](OC(=O)COCC)[C@H]3[C@@]4(C)CCC(=O)C(C)(C)[C@@H]4CC[C@]3(C)[C@@]2(C)CC1)OC(=O)COCC`: the “Ratio CC50/IC50” value was above 60 in data set [1] and above 40 in data set [5]. Also, the CC50 in data set [2] is above 1200 µM. In addition, the concentration for half-maximal inhibition (IC50) in data set [3] is 30 µM; in data set [4], 20 µM.

Turning to `CCOCC(=O)O[C@@H](C[C@@H](C)C1=C2C[C@H](OC(=O)COCC)[C@H]3[C@@]4(C)CCC(=O)C(C)(C)[C@@H]4CC[C@]3(C)[C@@]2(C)CC1)[C@@H](OC(=O)COCC)C(C)(C)O`, the “Ratio CC50/IC50” value in data set [1] is given as above 6.5; in data set [5] it was above 1.3. The 50% cytotoxic concentration (CC50) in data set [2] was above 2600 µM. Further, the figures for the IC50 in data set [3] and in data set [4] were 2000 µM and 400 µM, respectively.

Usually CC50 stands for the concentration that lowers cell viability or growth by half. Higher therefore signals better tolerance by the cells. One may read the IC50 as the concentration needed to halve the response being measured.
